We go through 4 compounds from patent EP1683515A2, “Bismuth-containing compounds in topical dosage forms” (Josman Laboratories, Inc., priority 1995, dated 1997).

A value given as a limit tells only on which side of the number the result lay.

Data set [1] has as its system H. Pylori. The settings on record: as a single agent; cited from earlier work.
The conditions of data set [2]: of the 13 adverse reaction forms, 1978 to 1986; cited from earlier work.
A further data set has as its system Treponema denticola. The experiment in a line: In vitro MIC against halitosis bacteria. In kind it is cell-based.
Data set [3] relates to H. Pylori. The settings on record: against H. Pylori; cited from earlier work.
Data set [4] in a line: Freeze-injured skin graft model. In kind it is in vivo. To be noted: 10 to 1000 mcg/mL; compared to placebo.
A further data set has as its system Campylobacter rectus. The experiment in a line: In vitro MIC against halitosis bacteria. The format is cell-based.
A further data set relates to rat mesentery culture. The experiment in a line: In vitro mesentery culture model, wound closure. To be noted: for concentrations of growth factors EGF and FGF: 10 mcg/mL to 1,000 mcg/mL in medium with 2% fetal calf serum; for wound closure rate: 10 mcg/mL to 1,000 mcg/mL, 24-hour, 48-hour and 72-hour, compared to the placebo. In kind it is cell-based. From the text: This tissue culture model is useful for gaining insights into growth factor interactions and wound healing.

Data set [5] is described as follows: Diabetic mouse wound healing model. The format is in vivo. The settings on record: 10 mcg/mL to 1,000 mcg/mL; compared to placebo treated wound. Here is the method:
Further, wound healing potential of the above bismuth compounds is evaluated using a diabetic mouse wound healing model (Matuszewska et al., Pharmaceutical Research 11(1):65-71 (1994), incorporated herein by reference).

Another data set deals with Helicobacter pylori. Nature of the data set: In vitro MIC against halitosis bacteria. In kind it is cell-based.
For data set [6] the following is noted: four hour exposure; 0.5% in artificial saliva; mild agitation. From the text: Artificial saliva was used (Table 9). Table 9 THECOMPOSITION OF ARTIFICIAL SALIVA
Table 10 DENTURE MATERIALS

As a reminder, the MIC is the least concentration at which growth counts as inhibited. High values mean weaker potency, low ones greater potency.

In the case of `Cc1ncc([N+](=O)[O-])n1CCO` [metronidazole], the “eradication rate for H. Pylori” value with H. Pylori [1] was 5%.

On to colloidal bismuth subcitrate [CBS], for which the “adverse reactions ascribed to CBS” value in data set [2] is reported as “Five”. Also, the MIC against Treponema denticola was 32 µg/mL. Further, in the data set with H. Pylori [3], the MIC range was 4 to 32 µg/mL and the “minimum inhibitory concentration (MIC)” value was 8 µg/mL. Also, the “wound healing in cryoinjured grafts” value in [4] is recorded as “stimulates wound healing in cryoinjured grafts in a dose-related fashion”. For the same compound, the MIC against Campylobacter rectus is 256 µg/mL. Besides, in the data set with rat mesentery culture, the “concentrations of growth factors EGF and FGF” value is on record as “Significantly higher”; the wound closure rate result was “significantly faster wound closure rate and complete closure”. Moreover, the wound healing entry in data set [5] is given as “heal faster”. This compound also gave a minimum inhibitory concentration (MIC) with Helicobacter pylori of 2 µg/mL. The “staining, discoloration, or changes in texture of natural tooth and other denture materials” value in data set [6] was “did not cause any staining, discoloration, or changes in texture”.

With Bismuth Ascorbyl Sulfate, the MIC is reported as 16 µg/mL with Treponema denticola, 256 µg/mL against Campylobacter rectus and 8 µg/mL in the data set on Helicobacter pylori. For the same compound, the “wound healing in cryoinjured grafts” value in data set [4] was “stimulates wound healing in cryoinjured grafts in a dose-related fashion”. For the same compound, the “concentrations of growth factors EGF and FGF” value with rat mesentery culture is on record as “Significantly higher”. Besides, the wound closure rate entry in the data set on rat mesentery culture was “significantly faster wound closure rate and complete closure”. Moreover, in [5], the wound healing entry is listed as “heal faster”.

Regarding Bismuth Sucrose Sulfate, the minimal inhibitory concentration (MIC) with Treponema denticola was 32 µg/mL; in the data set with Campylobacter rectus it was greater than 256 µg/mL; with Helicobacter pylori, 16 µg/mL.
